Like-named read-outs stand apart in the source and are kept apart here.
How the values were obtained:
EGFR del19/T790M/C797S = EGFR del19/T790M/C797S (Homo sapiens, UniProt P00533, C797S/DEL746-750/T790M); test: Biochemical EGFR kinase assay (Lance Ultra TR-FRET), triple mutant del19/T790M/C797S
How it was run: (§1)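 Kinase activity is measured by TR-FRET phosphopeptide detection. Compounds span 0.003 μM to 10 μM; the 1 h reaction at room temperature is quenched with EDTA, then labelled antibody (2 nM) is incubated 60 min before reading.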

EGFR L858R/T790M/C797S = EGFR L858R/T790M/C797S (Homo sapiens, UniProt P00533, C797S/L858R/T790M); test: Biochemical EGFR kinase assay (Lance Ultra TR-FRET), triple mutant L858R/T790M/C797S
How it was run: as §1

EGFR del19/C797S = EGFR del19/C797S (Homo sapiens, UniProt P00533, C797S/DEL746-750); test: Biochemical EGFR kinase assay (Lance Ultra TR-FRET), double mutant del19/C797S
How it was run: as §1

EGFR L858R/C797S = EGFR L858R/C797S (Homo sapiens, UniProt P00533, C797S/L858R); test: Biochemical EGFR kinase assay (Lance Ultra TR-FRET), double mutant L858R/C797S
How it was run: as §1

EGFR wildtype (WT) = EGFR wildtype (WT) (Homo sapiens, UniProt P00533); test: Biochemical EGFR kinase assay (Lance Ultra TR-FRET), wildtype
How it was run: as §1

[1] = Km ATP, read-out: IC50 del19/T790M/C797S (nM) Km ATP
[2] = Km ATP, read-out: IC50 L858R/T790M/C797S (nM) Km ATP
[3] = Km ATP, read-out: IC50 del19/C797S (nM) Km ATP
[4] = Km ATP, read-out: IC50 L858R/C797S (nM) Km ATP
[5] = Km ATP, read-out: IC50 WT (nM) Km ATP
[6] = Km ATP, read-out: IC50 del19/T790M/C797S, Km ATP
[7] = Km ATP, read-out: IC50 L858R/T790M/C797S, Km ATP
[8] = Km ATP, read-out: IC50 del19/C797S, Km ATP
[9] = Km ATP, read-out: IC50 L858R/C797S, Km ATP
[10] = Km ATP, read-out: IC50 WT, Km ATP
[11] = IC50 del19/T790M/C797S (nM) 100 μM ATP, 100 μM ATP
[12] = IC50 L858R/T790M/C797S (nM) 100 μM ATP, 100 μM ATP
[13] = IC50 del19/C797S (nM) 100 μM ATP, 100 μM ATP
[14] = IC50 L858R/C797S (nM) 100 μM ATP, 100 μM ATP
[15] = IC50 WT (nM) 100 μM ATP, 100 μM ATP

EGFR wildtype (WT), sequence (P00533 25-1210): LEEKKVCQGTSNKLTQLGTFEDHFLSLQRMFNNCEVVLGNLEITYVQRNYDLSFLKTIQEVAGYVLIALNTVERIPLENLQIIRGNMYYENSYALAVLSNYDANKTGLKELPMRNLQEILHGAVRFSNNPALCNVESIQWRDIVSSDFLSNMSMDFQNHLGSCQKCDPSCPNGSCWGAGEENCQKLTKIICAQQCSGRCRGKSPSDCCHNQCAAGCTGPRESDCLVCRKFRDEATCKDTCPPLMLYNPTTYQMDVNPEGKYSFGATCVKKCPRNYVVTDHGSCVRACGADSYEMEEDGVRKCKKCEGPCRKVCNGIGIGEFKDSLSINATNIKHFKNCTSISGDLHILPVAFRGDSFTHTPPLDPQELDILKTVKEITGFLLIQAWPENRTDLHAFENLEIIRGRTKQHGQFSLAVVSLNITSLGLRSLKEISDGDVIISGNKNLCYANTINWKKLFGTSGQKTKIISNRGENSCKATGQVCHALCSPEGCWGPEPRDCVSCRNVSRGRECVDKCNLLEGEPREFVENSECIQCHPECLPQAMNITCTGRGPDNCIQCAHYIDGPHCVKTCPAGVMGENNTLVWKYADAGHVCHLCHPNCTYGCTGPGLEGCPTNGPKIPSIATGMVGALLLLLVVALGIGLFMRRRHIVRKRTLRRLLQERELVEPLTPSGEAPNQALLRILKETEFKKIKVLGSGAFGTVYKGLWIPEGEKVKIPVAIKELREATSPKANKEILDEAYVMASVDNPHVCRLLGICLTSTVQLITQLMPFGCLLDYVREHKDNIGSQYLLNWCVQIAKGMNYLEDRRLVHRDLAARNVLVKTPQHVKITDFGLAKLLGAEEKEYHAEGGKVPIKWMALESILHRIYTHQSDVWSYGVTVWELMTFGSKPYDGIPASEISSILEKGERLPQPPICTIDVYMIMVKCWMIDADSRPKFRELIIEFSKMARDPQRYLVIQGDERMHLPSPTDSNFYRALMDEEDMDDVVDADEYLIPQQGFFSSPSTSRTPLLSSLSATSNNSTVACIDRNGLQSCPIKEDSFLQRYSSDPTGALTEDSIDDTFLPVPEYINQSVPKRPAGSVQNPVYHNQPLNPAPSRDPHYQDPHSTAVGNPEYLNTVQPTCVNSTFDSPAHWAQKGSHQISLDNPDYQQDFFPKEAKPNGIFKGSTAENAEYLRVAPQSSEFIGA
EGFR L858R/T790M/C797S, sequence (P00533 25-1210 T790M/C797S/L858R): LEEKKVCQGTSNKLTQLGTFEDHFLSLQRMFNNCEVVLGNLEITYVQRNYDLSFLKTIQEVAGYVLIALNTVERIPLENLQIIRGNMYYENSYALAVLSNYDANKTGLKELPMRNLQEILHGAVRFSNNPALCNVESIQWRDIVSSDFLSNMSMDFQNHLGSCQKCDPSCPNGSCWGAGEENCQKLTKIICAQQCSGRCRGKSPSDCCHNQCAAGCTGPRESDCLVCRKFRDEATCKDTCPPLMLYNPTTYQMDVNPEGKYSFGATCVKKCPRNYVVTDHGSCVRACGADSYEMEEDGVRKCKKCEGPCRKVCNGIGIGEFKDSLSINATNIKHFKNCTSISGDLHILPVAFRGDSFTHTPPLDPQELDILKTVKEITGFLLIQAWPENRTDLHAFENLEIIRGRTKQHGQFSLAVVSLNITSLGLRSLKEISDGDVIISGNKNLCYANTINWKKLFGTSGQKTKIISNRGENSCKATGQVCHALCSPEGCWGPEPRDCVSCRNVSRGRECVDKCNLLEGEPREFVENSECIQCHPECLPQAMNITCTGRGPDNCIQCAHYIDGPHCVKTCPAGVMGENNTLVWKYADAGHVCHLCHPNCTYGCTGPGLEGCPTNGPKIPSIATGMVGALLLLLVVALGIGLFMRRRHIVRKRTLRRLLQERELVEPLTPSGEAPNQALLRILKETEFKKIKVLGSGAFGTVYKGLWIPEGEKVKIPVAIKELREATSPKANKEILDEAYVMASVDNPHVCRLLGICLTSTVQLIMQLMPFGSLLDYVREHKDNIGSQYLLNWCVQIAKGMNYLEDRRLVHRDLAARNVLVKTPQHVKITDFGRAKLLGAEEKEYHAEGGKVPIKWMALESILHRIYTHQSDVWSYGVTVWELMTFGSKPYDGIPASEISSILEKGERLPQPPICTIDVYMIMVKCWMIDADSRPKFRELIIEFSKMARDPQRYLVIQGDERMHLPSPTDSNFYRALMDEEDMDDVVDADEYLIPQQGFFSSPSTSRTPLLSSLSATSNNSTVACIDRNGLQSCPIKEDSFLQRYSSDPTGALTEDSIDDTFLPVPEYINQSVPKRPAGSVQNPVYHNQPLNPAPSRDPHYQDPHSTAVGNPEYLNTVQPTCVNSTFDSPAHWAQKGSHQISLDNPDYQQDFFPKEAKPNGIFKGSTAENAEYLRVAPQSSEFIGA
EGFR del19/T790M/C797S, sequence (P00533 with tags, fused parts or gaps DEL746-750/T790M/C797S): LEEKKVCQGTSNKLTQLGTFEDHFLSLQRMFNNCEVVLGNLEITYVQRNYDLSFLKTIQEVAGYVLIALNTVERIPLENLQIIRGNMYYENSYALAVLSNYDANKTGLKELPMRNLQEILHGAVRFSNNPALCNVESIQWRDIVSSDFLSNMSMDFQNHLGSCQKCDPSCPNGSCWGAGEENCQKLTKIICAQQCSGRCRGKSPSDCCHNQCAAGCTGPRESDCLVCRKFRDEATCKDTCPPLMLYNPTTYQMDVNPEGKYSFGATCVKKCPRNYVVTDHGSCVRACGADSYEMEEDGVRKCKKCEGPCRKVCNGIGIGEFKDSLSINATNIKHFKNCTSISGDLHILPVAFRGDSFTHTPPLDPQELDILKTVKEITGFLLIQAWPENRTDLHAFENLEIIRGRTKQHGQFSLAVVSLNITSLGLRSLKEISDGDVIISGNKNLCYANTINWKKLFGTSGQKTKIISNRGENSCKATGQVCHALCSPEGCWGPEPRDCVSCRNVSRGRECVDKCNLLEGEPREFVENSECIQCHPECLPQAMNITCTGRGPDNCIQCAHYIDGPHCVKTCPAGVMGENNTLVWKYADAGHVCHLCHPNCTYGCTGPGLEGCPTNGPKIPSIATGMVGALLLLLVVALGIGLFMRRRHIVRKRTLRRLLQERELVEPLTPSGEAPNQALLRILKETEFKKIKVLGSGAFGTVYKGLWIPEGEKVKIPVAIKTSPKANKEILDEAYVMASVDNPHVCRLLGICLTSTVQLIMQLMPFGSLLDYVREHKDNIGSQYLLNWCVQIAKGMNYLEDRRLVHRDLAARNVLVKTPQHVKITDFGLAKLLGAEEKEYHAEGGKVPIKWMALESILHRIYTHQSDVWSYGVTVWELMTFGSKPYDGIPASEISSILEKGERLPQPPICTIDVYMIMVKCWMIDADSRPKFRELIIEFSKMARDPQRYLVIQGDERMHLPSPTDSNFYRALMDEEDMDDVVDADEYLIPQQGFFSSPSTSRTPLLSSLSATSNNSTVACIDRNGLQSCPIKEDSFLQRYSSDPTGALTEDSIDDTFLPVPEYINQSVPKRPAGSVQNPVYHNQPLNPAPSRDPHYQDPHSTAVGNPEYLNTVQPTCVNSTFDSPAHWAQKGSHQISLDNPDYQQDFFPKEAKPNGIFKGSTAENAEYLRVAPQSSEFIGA
EGFR L858R/C797S, sequence (P00533 25-1210 C797S/L858R): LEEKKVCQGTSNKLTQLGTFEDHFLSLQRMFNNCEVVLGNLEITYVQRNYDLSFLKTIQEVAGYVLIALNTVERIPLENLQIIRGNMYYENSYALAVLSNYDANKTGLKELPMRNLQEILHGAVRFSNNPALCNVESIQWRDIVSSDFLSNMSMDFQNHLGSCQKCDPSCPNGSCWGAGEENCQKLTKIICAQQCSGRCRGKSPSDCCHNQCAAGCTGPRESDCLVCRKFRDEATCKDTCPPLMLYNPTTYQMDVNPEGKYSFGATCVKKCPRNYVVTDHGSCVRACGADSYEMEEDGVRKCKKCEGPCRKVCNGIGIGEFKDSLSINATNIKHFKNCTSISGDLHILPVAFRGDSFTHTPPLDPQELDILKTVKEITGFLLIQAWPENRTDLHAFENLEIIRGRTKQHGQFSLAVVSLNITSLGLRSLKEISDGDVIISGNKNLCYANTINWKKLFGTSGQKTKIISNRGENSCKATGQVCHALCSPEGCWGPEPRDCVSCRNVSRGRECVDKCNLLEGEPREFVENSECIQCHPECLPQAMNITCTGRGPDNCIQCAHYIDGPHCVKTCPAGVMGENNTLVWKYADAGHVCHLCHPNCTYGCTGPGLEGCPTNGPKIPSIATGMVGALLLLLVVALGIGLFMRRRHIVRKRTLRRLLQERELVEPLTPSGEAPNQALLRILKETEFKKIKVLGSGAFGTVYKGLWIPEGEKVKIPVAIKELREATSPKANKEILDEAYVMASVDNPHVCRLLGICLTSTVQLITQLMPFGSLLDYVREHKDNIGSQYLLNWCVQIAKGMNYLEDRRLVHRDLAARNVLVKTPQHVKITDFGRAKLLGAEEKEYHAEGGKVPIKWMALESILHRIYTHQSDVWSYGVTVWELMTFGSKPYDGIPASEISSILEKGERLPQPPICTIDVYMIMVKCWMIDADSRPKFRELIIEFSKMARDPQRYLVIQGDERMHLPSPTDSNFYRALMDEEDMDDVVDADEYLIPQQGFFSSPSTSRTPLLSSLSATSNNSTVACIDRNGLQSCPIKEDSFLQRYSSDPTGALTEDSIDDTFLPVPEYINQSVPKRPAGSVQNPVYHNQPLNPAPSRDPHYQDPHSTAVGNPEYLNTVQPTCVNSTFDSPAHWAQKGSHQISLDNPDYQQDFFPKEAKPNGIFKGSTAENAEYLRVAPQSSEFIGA

| Structure (SMILES) | IC50 (EGFR del19/T790M/C797S; [1]) [nM] | IC50 (EGFR L858R/T790M/C797S; [2]) [nM] | IC50 (EGFR del19/C797S; [3]) [nM] | IC50 (EGFR L858R/C797S; [4]) [nM] | IC50 (EGFR wildtype (WT); [5]) [nM] | IC50 (EGFR del19/T790M/C797S; [6]) [nM] | IC50 (EGFR L858R/T790M/C797S; [7]) [nM] | IC50 (EGFR del19/C797S; [8]) [nM] | IC50 (EGFR L858R/C797S; [9]) [nM] | IC50 (EGFR wildtype (WT); [10]) [nM] | IC50 (EGFR del19/T790M/C797S; [11]) [nM] | IC50 (EGFR L858R/T790M/C797S; [12]) [nM] | IC50 (EGFR del19/C797S; [13]) [nM] | IC50 (EGFR L858R/C797S; [14]) [nM] | IC50 (EGFR wildtype (WT); [15]) [nM] |
| --- | --- | --- | --- | --- | --- | --- | --- | --- | --- | --- | --- | --- | --- | --- | --- |
| C[C@]1(O)CC[C@@H](Nc2cc(Nc3ccnc(-c4cnn(S(=O)(=O)C5CC5)c4)n3)nnc2-c2ccn(CC(F)(F)F)n2)CC1 [Example 374, (1s,4s)-4-((6-((2-(1-(Cyclopropylsulfonyl)-1H-pyrazol-4-yl)pyrimidin-4-yl)amino)-3-(1-(2,2,2-trifluoroethyl)-1H-pyrazol-3-yl)pyridazin-4-yl)amino)-1-methylcyclohexan-1-ol] | – | – | – | – | – | 0.3 | 0.6 | 241 | 25.9 | 1050 | – | – | – | – | – |
| COCC#Cc1nccc(Nc2cc(NC3CCC(C)(O)CC3)c(-c3ccn(C(F)F)n3)cn2)n1 (stereo not shown) [Example 104, (1s,4s)-4-((5-(1-(Difluoromethyl)-1H-pyrazol-3-yl)-2-((2-(3-methoxyprop-1-yn-1-yl)pyrimidin-4-yl)amino)pyridin-4-yl)amino)-1-methylcyclohexan-1-ol] | 4.3 | 5.9 | 949 | 15.6 | 984 | – | – | – | – | – | – | – | – | – | – |
| Cc1cn(-c2cnc(Nc3ccnc(-c4cnn(S(=O)(=O)C5CC5)c4)n3)cc2N[C@H]2CC[C@@](C)(O)CC2)nc1C(F)(F)F [Example 186, (1s,4s)-4-((2-((2-(1-(Cyclopropylsulfonyl)-1H-pyrazol-4-yl)pyrimidin-4-yl)amino)-5-(4-methyl-3-(trifluoromethyl)-1H-pyrazol-1-yl)pyridin-4-yl)amino)-1-methylcyclohexan-1-ol] | 1.3 | 0.4 | 32.9 | 30.4 | 166 | – | – | – | – | – | – | – | – | – | – |
| O=S(=O)(C1CC1)n1cc(-c2nccc(Nc3cc(NCCCn4ccnc4)c(-c4ccn(C(F)F)n4)cn3)n2)cn1 [Example 41, N^4-(3-(1H-Imidazol-1-yl)propyl)-N^2-(2-(1-(cyclopropylsulfonyl)-1H-pyrazol-4-yl)pyrimidin-4-yl)-5-(1-(difluoromethyl)-1H-pyrazol-3-yl)pyridine-2,4-diamine] | – | – | – | – | – | – | – | – | – | – | 2 | 6.8 | 34.8 | > 10000 | > 10000 |
| O=S(=O)(C1CC1)n1cc(-c2nccc(Nc3cc(N[C@H]4CC[C@@H](NCC(F)F)CC4)c(-c4csc(C(F)(F)F)n4)cn3)n2)cn1 [Example 53, N^2-(2-(1-(Cyclopropylsulfonyl)-1H-pyrazol-4-yl)pyrimidin-4-yl)-N^4-((1s,4s)-4-((2,2-difluoroethyl)amino)cyclohexyl)-5-(2-(trifluoromethyl)thiazol-4-yl)pyridine-2,4-diamine] | 8.5 | 2.9 | 7.7 | 15 | 105 | – | – | – | – | – | 9.4 | 11.3 | 14.2 | 264 | > 10000 |
| CC(C)(O)[C@H]1CC[C@@H](Nc2cc(Nc3ccnc(-c4cnn(CC(F)F)c4)n3)ncc2-c2ccn(C(F)F)n2)CC1 [Example 148, 2-((1s,4s)-4-((2-((2-(1-(2,2-Difluoroethyl)-1H-pyrazol-4-yl)pyrimidin-4-yl)amino)-5-(1-(difluoromethyl)-1H-pyrazol-3-yl)pyridin-4-yl)amino)cyclohexyl)propan-2-ol] | 1.4 | 1.7 | 75.5 | 27 | 128 | – | – | – | – | – | – | – | – | – | – |
| O=S(=O)(C1CC1)n1cc(-c2cc(Nc3ncc(-c4ccn(CC(F)(F)F)n4)c(N[C@H]4CC[C@@H](F)CC4)n3)ccn2)cn1 [Example 366, N^2-(2-(1-(Cyclopropylsulfonyl)-1H-pyrazol-4-yl)pyridin-4-yl)-N^4-((1s,4s)-4-fluorocyclohexyl)-5-(1-(2,2,2-trifluoroethyl)-1H-pyrazol-3-yl)pyrimidine-2,4-diamine] | – | – | – | – | – | 8.5 | 3.1 | 249 | 127 | 3320 | – | – | – | – | – |
| O=S(=O)(C1CC1)n1cc(-c2nccc(Nc3cc(N[C@H]4CC[C@@H](O)CC4)c(-c4cnn(C5CC5)c4)cn3)n2)cn1 [Example 78, (1s,4s)-4-((5-(1-Cyclopropyl-1H-pyrazol-4-yl)-2-((2-(1-(cyclopropylsulfonyl)-1H-pyrazol-4-yl)pyrimidin-4-yl)amino)pyridin-4-yl)amino)cyclohexan-1-ol] | – | – | – | – | – | – | – | – | – | – | 4.8 | 5.4 | 38.5 | 161 | > 10000 |

Other lines, results leading:

| IC50 (EGFR del19/T790M/C797S; [1]) [nM] | IC50 (EGFR L858R/T790M/C797S; [2]) [nM] | IC50 (EGFR del19/C797S; [3]) [nM] | IC50 (EGFR L858R/C797S; [4]) [nM] | IC50 (EGFR wildtype (WT); [5]) [nM] | IC50 (EGFR del19/T790M/C797S; [6]) [nM] | IC50 (EGFR L858R/T790M/C797S; [7]) [nM] | IC50 (EGFR del19/C797S; [8]) [nM] | IC50 (EGFR L858R/C797S; [9]) [nM] | IC50 (EGFR wildtype (WT); [10]) [nM] | IC50 (EGFR del19/T790M/C797S; [11]) [nM] | IC50 (EGFR L858R/T790M/C797S; [12]) [nM] | IC50 (EGFR del19/C797S; [13]) [nM] | IC50 (EGFR L858R/C797S; [14]) [nM] | IC50 (EGFR wildtype (WT); [15]) [nM] | Structure (SMILES) |
| --- | --- | --- | --- | --- | --- | --- | --- | --- | --- | --- | --- | --- | --- | --- | --- |
| 0.4 | 0.1 | 11.5 | 6.1 | 7.5 | – | – | – | – | – | – | – | – | – | – | CN(C)C[C@H]1C[C@H](CNc2cc(Nc3ccnc(-c4cnn(S(=O)(=O)C5CC5)c4)n3)ncc2-c2ccn(CC(F)F)n2)C1 [Example 249, N^2-(2-(1-(Cyclopropylsulfonyl)-1H-pyrazol-4-yl)pyrimidin-4-yl)-5-(1-(2,2-difluoroethyl)-1H-pyrazol-3-yl)-N^4-(((1r,3r)-3-((dimethylamino)methyl)cyclobutyl)methyl)pyridine-2,4-diamine] |
| 0.8 | 0.4 | 0.3 | 0.2 | – | – | – | – | – | – | 0.9 | 1 | 1.2 | 0.8 | 321 | Cn1ccc(-c2cnc(Nc3ccnc(-c4cnn(S(=O)(=O)C5CC5)c4)n3)cc2N[C@H]2CC[C@@H](CCO)CC2)n1 [Example 136, 2-((1s,4s)-4-((2-((2-(1-(Cyclopropylsulfonyl)-1H-pyrazol-4-yl)pyrimidin-4-yl)amino)-5-(1-methyl-1H-pyrazol-3-yl)pyridin-4-yl)amino)cyclohexyl)ethan-1-ol] |
| 0.4 | 0.2 | 0.5 | 1.3 | 10.5 | – | – | – | – | – | 1.3 | – | 1.3 | 18.7 | > 10000 | O=S(=O)(C1CC1)n1cc(-c2nccc(Nc3cc(NC[C@H]4CC[C@H](O)CC4)c(-c4ccn(C(F)F)n4)cn3)n2)cn1 [Example 31, (1r,4r)-4-(((2-((2-(1-(Cyclopropylsulfonyl)-1H-pyrazol-4-yl)pyrimidin-4-yl)amino)-5-(1-(difluoromethyl)-1H-pyrazol-3-yl)pyridin-4-yl)amino)methyl)cyclohexan-1-ol] |
| 0.8 | 0.8 | 26.8 | 116 | 781 | – | – | – | – | – | – | – | – | – | – | Cc1nn(-c2cnc(Nc3ccnc(-c4cnn(S(=O)(=O)C5CC5)c4)n3)cc2N[C@H]2CC[C@@](C)(O)CC2)cc1C(F)(F)F [Example 182, (1s,4s)-4-((2-((2-(1-(Cyclopropylsulfonyl)-1H-pyrazol-4-yl)pyrimidin-4-yl)amino)-5-(3-methyl-4-(trifluoromethyl)-1H-pyrazol-1-yl)pyridin-4-yl)amino)-1-methylcyclohexan-1-ol] |
| 0.2 | 0.1 | 0.3 | 0.7 | 3.2 | – | – | – | – | – | 0.2 | 0.2 | 0.6 | 5.9 | 3020 | Cn1ccc(-c2cnc(Nc3ccnc(-c4cnn(S(=O)(=O)C5CC5)c4)n3)cc2NC[C@H]2C[C@H](CO)C2)n1 [Example 223, ((1r,3r)-3-(((2-((2-(1-(Cyclopropylsulfonyl)-1H-pyrazol-4-yl)pyrimidin-4-yl)amino)-5-(1-methyl-1H-pyrazol-3-yl)pyridin-4-yl)amino)methyl)cyclobutyl)methanol] |
| 0.2 | 0.1 | 45.1 | 26.9 | 77.7 | – | – | – | – | – | 0.4 | 0.8 | 47.6 | 295 | > 10000 | COCCn1cc(-c2nccc(Nc3cc(N[C@H]4CC[C@@](C)(O)CC4)c(-c4ccn(C(F)F)n4)cn3)n2)cn1 [Example 138, (1s,4s)-4-((5-(1-(Difluoromethyl)-1H-pyrazol-3-yl)-2-((2-(1-(2-methoxyethyl)-1H-pyrazol-4-yl)pyrimidin-4-yl)amino)pyridin-4-yl)amino)-1-methylcyclohexan-1-ol] |
| 0.3 | 0.1 | 4.4 | 5.8 | 19.9 | – | – | – | – | – | 0.2 | 0.6 | 7.5 | 32.1 | > 10000 | O=S(=O)(C1CC1)n1cc(-c2nccc(Nc3cc(NC4CCCC(NCCF)C4)c(-c4ccn(C(F)F)n4)cn3)n2)cn1 (stereo not shown) [Example 194, N^2-(2-(1-(Cyclopropylsulfonyl)-1H-pyrazol-4-yl)pyrimidin-4-yl)-5-(1-(difluoromethyl)-1H-pyrazol-3-yl)-N^4-(3-((2-fluoroethyl)amino)cyclohexyl)pyridine-2,4-diamine] |

— US12258327B2, “5-membered heteroaryl-containing aminopyridine compounds as EGFR inhibitors” (YUHAN CORPORATION, priority 2021, dated 2025)
